# Like-named read-outs stand apart in the source and are kept apart here.
# Columns and labels:
# Bovine aortic EC = test: LA transport after exposure to homocysteine and its thiolactone; type: cell-based
# Text: A third aspect of the present invention is the treatment, prevention, or amelioration of homocysteinemia with L-arginine alone. Hyperhomocysteinemia is associated with vascular EC dysfunction and increased risk for atherosclerosis and atherothrombosis. Free radical formation during homocyst(e)ine auto-oxidation has been implicated in its vascular toxicity. Long-term EC exposure to homocyst(e)ine limits nitric oxide synthase (NOS) activity, increasing EC vulnerability to oxidative injury (Stamler et al., 1993). To see whether these effects could be due to alterations in cellular availability of the NOS substrate LA, we tested the effects on LA transport of D,L-homocysteine (DLH) and an auto-oxidation product, L-homocysteine thiolactone (LHT). Bovine aortic EC were exposed to DLH and LHT (1.1-5 mM) for 6 and 24 hours and then incubated with […] [^3H]-LA for 1 min. Cells were washed with ice cold buffer, lysed in 0.5% SDS in 0.1 N NaOH and radioactivity was determined. DLH increased LA uptake in a concentration dependent manner at 6 hr. […] However, after 24 hr. exposure LA uptake was decreased (25-40%).
# [1] = system: bovine aortic endothelial cells (BAEC); test: Cellular superoxide anion formation (SOD-inhibitable reduction of ferricytochrome C); type: cell-based; conditions: for inhibition of O2^•- production induced by A-23187: 5 × 10^-4M, A-23187 1 µM; for inhibition at 500 µM: Bos taurus, BAEC
# Description: Cellular superoxide anion formation in the presence of NOS agonists. […] After reaching confluency, cells were washed 3 times (3 ml) with Dulbecco's phosphate buffered saline (DPBS) and 2 coverslips were placed in a disposable plastic cuvette facing each other. DPBS (1.8 ml) was gently placed in cuvette in addition to ferricytochrome C (final concentration, 50 µmol/L). […] Change in absorbance over time was determined and the amount of superoxide anion [ε=[…]] generated was determined over time and reported as pmoles O2^•-/min./10^6 cells.
# y^+ transporter = test: Cellular uptake of [3H]-L-arginine via y+ transport in the presence of NOS agonists and NO donors; type: cell-based, bovine; conditions: for increase of [^3H]-LA uptake / increase of LA uptake: Ach 5 µM; for maximum inhibition of LA transport: Fig. 8; for inhibition of LA transport: data not shown
# Description: Characterization of L-arginine transport system in bovine aortic endothelial cells. […] Prior to experiments, cells were split 1:4, transferred into 24 well plates, and allowed to grow to confluency. […] CaCl2, 1.8 mM; KCl 5.4 mM, choline 140 mM; […] Uptake of LA was terminated by addition of ice cold buffer and cells were washed three times with 1 ml of buffer. […] Cellular uptake of LA via B^α+ system was determined by substituting sodium chloride for choline and incubating as described above. The difference in uptake determined for both transporters and that observed for y+ alone represented the amount of LA uptake contributed by sodium-dependent B^α+ system. […] It has been previously reported that passive, non-saturable diffusion of LA can occur but only when extracellular levels of LA are within the millimolar concentration. […] Uptake of LA was terminated and total cellular transport of LA determined as described above.
# [2] = target: T1, nitric oxide synthase (NOS) (Bos taurus, UniProt P29473); test: NO production in cultured endothelial cells (oxyhemoglobin to methemoglobin conversion and NO sensitive electrode); type: cell-based, bovine
# T1 construct: DOX activity as a NOS agonist was investigated in cultured bovine aortic EC; endogenous in cells; host or cells: cultured bovine aortic endothelial cells
# Text: Doxazosin, a selective alpha-1 blocker, is pharmacologically similar to prazosin and terazosin. It has been shown that selective alpha-1 blockers lower total and LDL cholesterol. Thus, these selective alpha-1 blockers may be useful in treating both hypertension and hypercholesterolemia. […] In fact, a wide variety of vasoactive agents (e.g. bradykinin, muscarinic agonists and growth factors) which increase tPA levels are also agonists of nitric oxide synthase (NOS). DOX activity as a NOS agonist was investigated in cultured bovine aortic EC using two methods to assess NO production: conversion of oxyhemoglobin to methamoglobin and a NO sensitive electrode. […] This increase in NO to DOX (10^-6 M) was blocked by 72% by prior administration of the NOS inhibitor, L-NAME (5 x 10^-4 M). In addition, the NO responses were accentuated by the presence of supplemental L-arginine (5 x 10^-4 M) by 65%. […] This increase in NO to ACH (10^-6 M) was blocked by 86% by prior administration of L-NAME. In addition, the NO responses were accentuated by 72% in the presence of supplemental L-arginine. DOX, therefore, appears to be a NOS agonist in EC.
# For all experiments, human coronary artery endothelial cells (passage 3-5 - Clonetics) were maintained at 37°, […] and 5% CO2 in Medium 199 (M199) supplemented with 5% fetal bovine serum (FBS, Hyclone), 10% iron supplemented FBS (Hyclone), thymidine (100mg mL^-1), penicillin G (100U mL^-1) and streptomycin (100µg mL^-1).
# In all experiments, the effects of pretreatment with L-NAME (10^-3 M) in blocking the actions of DOX, and excess L-arginine (10^-3 M) in reversing any L-NAME effect was examined. Acetylcholine, an eNOS agonist, was used in all experiments as the positive control at concentrations of 10^-7 and 10^-6 M.
# Methemoglobin - The effect of DOX on NO production in EC was determined using a photometric assay for conversion of oxyhemoglobin to methemoglobin. For this assay, EC grown to confluency on microcarrier beads are placed into a water-jacketed chromatography column and superfused with a Kreb's-Ringer buffer containing 3 µM oxyhemoglobin and 50 µM LA (L-arginine). Perfusate is then directed into a flow-through cuvette in a dual wavelength spectrophotometer and change in absorbancy (415/405 nm) is measured. Experimental stimulation was carried out by 3 min infusion periods of DOX added to buffer perfusion to yield final concentrations of 10^-7 and 10^-6 M. For analysis, we determined the area under the curve for the change in absorbancy response/min caused by DOX assuming a one to one correspondence for NO and metHb production, the known stoichiometric balance for this reaction. No electrode - NO production was measured with a NO meter connected to a polargraphic NO electrode as previously described. The NO sensor probe will be inserted vertically into 24-well plates containing confluent EC such that the tip of the electrode is submerged 2 mm under the surface of medium (above - 1ml). The reaction was initiated when desired concentrations of DOX are added to the well. Calibrations were performed with S-nitroso-acetyl-penicillamine.
# [3] = cited from earlier work
# [4] = read-out: reduced O2· induced by SP
compound,measurement,setting,value
"NC(CCS)C(=O)O (racemic) [DLH, D,L-homocysteine]",LA uptake decreased,"Bovine aortic EC; 24 hr. exposure, 1.1-5 mM",25-40%
same,activation at 5000 µM,"Bovine aortic EC; Bos taurus, 5 mM, 6 hr exposure, read-out: maximum increase of LA uptake",53%
CNc1ccc2oc(C[C@H]3O[C@@]4(CC[C@H]3C)O[C@H]([C@H](C)C(=O)c3ccc[nH]3)[C@H](C)C[C@H]4C)nc2c1C(=O)O [A-23187],increased O2· production above basal levels,[1],2.5 fold
"CC(=O)OCC[N+](C)(C)C [Acetylcholine, acetylcholine]",increase of [^3H]-LA uptake,y^+ transporter; 2 minute exposure,22%
same,increase of [^3H]-LA uptake,y^+ transporter; 15 minute (maximum),27%
same,increase of LA uptake,y^+ transporter; 30 minutes,16%
same,increase of LA uptake,y^+ transporter; 60 minutes,15.5%
"COc1cc2nc(N3CCN(C(=O)C4COc5ccccc5O4)CC3)nc(N)c2cc1OC (stereo not shown) [DOX, Doxazosin]",dose-related increase in NO production,"[2]; DOX 10^-7 - 10^-5 M, cultured bovine aortic EC",64-145%
"NCCCN(CCCN)/[N+]([O-])=N/O [DPTA-NONOate, dipropylenetriamine NONOate]",maximum inhibition of LA transport,"y^+ transporter; 0.01 µM DPTA, 2 hour exposure",20%
same,effect on y^+ system,"y^+ transporter; 1 µM DPTA-NONOate (2 µM NO), 15 and 30 min",no significant effect
same,inhibition of LA transport,"y^+ transporter; 1 µM DPTA-NONOate (2 µM NO), 1 hour exposure",22%
same,inhibition of LA transport,"y^+ transporter; 1 µM DPTA-NONOate (2 µM NO), 2 hour exposure",24%
same,inhibition of LA transport,"y^+ transporter; 1 µM DPTA-NONOate (2 µM NO), 4 hour exposure",29%
same,maximum inhibition of LA transport,"y^+ transporter; 1 µM DPTA, 2 hour exposure",24%
same,maximum inhibition of LA transport,"y^+ transporter; 10 µM DPTA, 2 hour exposure",44%
"COC(=O)[C@@H](N)CCCN=C(N)N[N+](=O)[O-] [L-NAME, n-ω-nitro-L-arginine methyl ester]",increase in NO blocked by prior administration of L-NAME,[2]; NO response to ACH 10^-6 M,86%
same,inhibition at 500 µM,[2]; read-out: increase in NO blocked by prior administration of L-NAME,72%
same,inhibition of O2^•- production induced by A-23187,[1],58%
same,inhibition at 500 µM,"[1]; 1 h, read-out: prevented basal production of O2^•-",100%
same,inhibition at 500 µM,[1]; [4],81%
N=C(N)NCCC[C@H](N)C(=O)O [L-arginine],NO responses accentuated by supplemental L-arginine,"[2]; NO responses to DOX, L-arginine 5 x 10^-4 M",65%
same,NO responses accentuated in the presence of supplemental L-arginine,[2]; NO responses to acetylcholine,72%
same,inhibition of O2^•- production induced by A-23187,[1],60%
same,inhibition at 500 µM,[1]; [4],51%
same,prevention of basal production of O2^•-,"[1]; LA 5 x 10^-4M, basal",not
"N[C@H]1CCSC1=O [LHT, L-homocysteine thiolactone]",LA transport,"Bovine aortic EC; after 6 and 24 hrs exposure, 1.1-5 mM",dose-related decrease
"CC(=O)N[C@H](C(=O)O)C(C)(C)SN=O [SNAP, S-nitroso-acetyl-penicillamine]",t1/2 of NO donation,[3],~ 10 minutes
same,increased activity of the Y^+ transporter,"y^+ transporter; 200 µM SNAP (0.4 µM NO), ten minutes of exposure",37%
same,elevation of Y^+ transporter activity,"y^+ transporter; 200 µM SNAP, 30 minute exposure",not seen
same,uptake of [^3H]-LA reduced,"y^+ transporter; 200 µM SNAP, 1 hour",22%
same,reduction of uptake of [^3H]-LA,"y^+ transporter; 200 µM SNAP, 2 hour exposure",46%
same,reduction of uptake of [^3H]-LA,"y^+ transporter; 200 µM SNAP, 3 hour exposure",45%
same,reduction of uptake of [^3H]-LA,"y^+ transporter; 200 µM SNAP, 5 hour exposure",36%
"CSCC[C@H](NC(=O)[C@H](CC(C)C)NC(=O)CNC(=O)[C@H](Cc1ccccc1)NC(=O)[C@H](Cc1ccccc1)NC(=O)[C@H](CCC(N)=O)NC(=O)[C@H](CCC(N)=O)NC(=O)[C@@H]1CCCN1C(=O)[C@H](CCCCN)NC(=O)[C@@H]1CCCN1C(=O)[C@@H](N)CCCNC(=N)N)C(N)=O [SP, substance P]",increased O2· production above basal levels,"[1]; 1 µM, 60 minute period",3.5 fold
same,increase of y^+ transport of LA into cells,"y^+ transporter; SP 1µM, 15 minutes exposure",24%
same,increase of y^+ transport of LA into cells,"y^+ transporter; SP 1µM, 30 minutes",24%
same,increase of y^+ transport of LA into cells,"y^+ transporter; SP 1µM, 60 minutes",21%
same,y^+ transporter activity enhanced from control values,"y^+ transporter; SP 1µM, 2 hour exposure",≤ 34%
same,cellular LA increase,"y^+ transporter; SP 1µM, 3 hour exposure",27%
same,cellular LA increase,"y^+ transporter; SP 1µM, 5 hour exposure",21%
"bradykinin (RPPGFSPFR; Bradykinin; UniProt P01042 381-389, looked up) [BK]",increase of cellular transport of LA,"y^+ transporter; BK 1αM, 15 minute exposure (maximum)",42%
same,increase of cellular transport of LA,"y^+ transporter; BK 1αM, 30 minutes",39%
same,increase of cellular transport of LA,"y^+ transporter; BK 1αM, 60 minutes",16%
same,enhanced cellular uptake of LA,"y^+ transporter; BK 1αM, 2 hour exposure",38%
same,increase in transport of LA,"y^+ transporter; BK 1αM, 3 hour exposure",19%
same,increase in transport of LA,"y^+ transporter; BK 1αM, 5 hour exposure",22%
